Laboratory results reported in US11998513B2, “Two-part nitric oxide generating topical compositions” (THE REGENTS OF THE UNIVERSITY OF MICHIGAN, priority 2018, dated 2024).

Columns and labels:
Type in all cases: physicochemical
[1] = Storage stability of SNAP in VASELINE® (UV-Vis % Recovery); settings: room temperature
Description: The stability of 5 wt % and 10 wt % SNAP in petroleum jelly was tested. The petroleum jelly used was VASELINE®.
Mixtures of 5 wt % SNAP powder or 10 wt % SNAP powder in VASELINE® were mixed until homogeneity was achieved. Each homogeneous mixture was spread out on a weigh boat and dried under vacuum and desiccant for 24 hours. Afterwards, individual samples were weighed out into individual amber glass vials. Each sample's mass was recorded to obtain the theoretical amount of SNAP in each sample. Septum caps were used to allow purging of each sample with nitrogen gas for storage. All caps were then wrapped in parafilm, and then each vial was wrapped in aluminum foil to ensure that the samples are not exposed to light. All samples were stored in the dark at room temperature (˜25° C. in this example).
To quantify the amount of SNAP in each VASELINE® sample, UV-Vis was used. After recording the absorption of a sample, Beer's law (A=εbc, where A=absorption, ε=922 M^−1 cm^−1, b=1 cm, and c=concentration) was used to calculate the concentration of SNAP. These measurements were made at different times over several months.
When a stored SNAP/VASELINE® sample was going to be analyzed, it was opened and 40 mg of the sample was retrieved. […] The SNAP solution was diluted 1:10 twice, and used to obtain UV-Vis absorbance values between 0.2 and 2 AU (absorbance units) at […]. […]

[2] = NO release from 1 mM GSNO bulk solution after addition of metal ions (chemiluminescence analyzer); settings: 100 μL of 1 mM salt into 2 mL of 1 mM GSNO, 10 mM Tris-HCl pH 7.4, dark, 24° C.
Description: Another experiment was performed to determine whether zinc ions can increase NO proliferation from GSNO in the dark at 24° C. NO release was measured using a nitric oxide (chemiluminescence) analyzer. Throughout the analysis, each solution was bubbled with N2 gas at a rate of 50 mL/min. Any generated NO was carried into the analyzer by a N2 sweep gas. All of the solutions were made with 10 mM Tris-HCl buffer (pH 7.4). A bulk solution was prepared including 1 mM GSNO in the buffer. 2 mL of this bulk solution were added to a sample cell and the analyzer was allowed to equilibrate for 1 minute. At t=1 minute, 100 μL of 1 mM zinc chloride (ZnCl2) was added to the bulk solution. […] For the control, 100 μL of the buffer (10 mM Tris-HCl, pH 7.4) was added into the bulk solution at t=1 minute. The same insignificant burst was observed. For each scenario, at t=10.5 minutes, 100 μL of 1 mM CuCl2 was added to the bulk as a positive control.

[3] = Storage stability of GSNO in VASELINE® (UV-Vis % Recovery); settings: room temperature (18° C. to about 25° C.)
Description: The stability of 10 wt % GSNO in petroleum jelly was tested. The petroleum jelly used was VASELINE®.
A mixture 10 wt % GSNO in VASELINE® was mixed until homogeneity was achieved. The homogeneous mixture was spread out on a weigh boat and dried under vacuum and desiccant for 24 hours. Afterwards, individual samples were weighed out into individual amber glass vials. Each sample's mass, ranging from 15-40 mg per sample, was recorded to obtain the theoretical amount of GSNO in each sample. Septum caps were used to allow purging of each sample with nitrogen gas for storage. Each sample was purged under nitrogen gas for 5 hours. […]
To quantify the amount of GSNO in each VASELINE® sample, ultraviolet-visible spectroscopy (UV-Vis) was used. […]
When a stored GSNO/VASELINE® sample was going to be analyzed, it was opened, subjected to 5 mL of xylene, vortexed for 30 seconds, and stirred for 10 minutes. […] An aliquot of the aqueous layer was taken and the absorbance spectrum was captured from 200-600 nm using UV-Vis to quantitate the level of GSNO present in the GSNO/VASELINE® sample. […]
UV-Vis spectroscopy was used to determine the stability of GSNO in VASELINE®. […] After sample prep, the aliquot of the aqueous layer was taken in an appropriate volume so that the absorbance measured would be <1 at 334 nm. The sample was further diluted if necessary to achieve an absorbance of <1. […]

## CC(=O)N[C@@H](C(=O)O)C(C)(C)SN=O (racemic) [SNAP, S-nitroso-n-acetylpenicillamine]
[1]; higher amounts of SNAP (10 wt % SNAP)
  period for which petroleum jelly is a stable carrier: at least 2 months
[1]; lower amounts of SNAP (5 wt % SNAP)
  period for which petroleum jelly is a stable carrier: at least 6 months

## [Cl][Cu][Cl] [CuCl2]
[2]
  NO release on addition to GSNO bulk solution (in words): large burst in NO release

## N[C@@H](CCC(=O)N[C@@H](CSN=O)C(=O)NCC(=O)O)C(=O)O [GSNO, S-nitrosoglutathione]
[3]
  period for which petroleum jelly is a stable carrier: at least 300 days

## [Cl-].[Cl-].[Zn+2] [ZnCl2, zinc chloride]
[2]
  NO release on addition to GSNO bulk solution (in words): small, insignificant burst of NO
